Results as given in ChEMBL document CHEMBL1201862, “PubChem BioAssay data set” (2004).
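Five compound concentrations were applied to cells in 96-well plates for 48 hours; endpoints were derived by simple linear interpolation of the resulting dose-response curve. GI50: concentration for 50% inhibition of growth.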 Activity calls are given as the source filed them. Rule as the data show it: active = GI50 up to about 1.1 µM and inactive = higher.

Experiments:
Assay in all cases: NCI anticancer screen, dose series, 48 h
[1] = test system: SK-MEL-2
[2] = test system: LOX IMVI
[3] = test system: HT-29
[4] = test system: RPMI-8226
[5] = test system: MDA-MB-231
[6] = test system: NCI-H226
[7] = test system: T47D
[8] = test system: NCI-H522
[9] = test system: IGROV-1
[10] = test system: UACC-257
[11] = test system: MDA-MB-435
[12] = test system: MCF7
[13] = test system: Malme-3M
[14] = test system: Hs-578T
[15] = test system: UO-31
[16] = test system: CCRF-CEM
[17] = test system: SK-OV-3
[18] = test system: HL-60
[19] = test system: DU-145
[20] = test system: SNB-75
[21] = test system: OVCAR-3
[22] = test system: A498
[23] = test system: NCI-H23
[24] = test system: SN12C
[25] = test system: TK-10
[26] = test system: U-251
[27] = test system: HCT-116
[28] = test system: OVCAR-5
[29] = test system: K562
[30] = test system: RXF 393
[31] = test system: NCI/ADR-RES
[32] = test system: OVCAR-4
[33] = test system: KM12
[34] = test system: 786-0
[35] = test system: PC-3
[36] = test system: OVCAR-8
[37] = test system: SNB-19
[38] = test system: SW-620
[39] = test system: HCC 2998
[40] = test system: NCI-H460
[41] = test system: M14
[42] = test system: BT-549
[43] = test system: ACHN
[44] = test system: COLO 205
[45] = test system: HCT-15
[46] = test system: HOP-92
[47] = test system: SF-268
[48] = test system: MOLT-4
[49] = test system: UACC-62
[50] = test system: SF-295
[51] = test system: EKVX
[52] = test system: CAKI-1
[53] = test system: A549
[54] = test system: SK-MEL-5
[55] = test system: SF-539
[56] = test system: MDA-N
[57] = test system: HOP-62
[58] = test system: SK-MEL-28
[59] = test system: SR

O=C1/C(=C/c2ccc([N+](=O)[O-])cc2)Sc2scc(-c3cccc([N+](=O)[O-])c3)[n+]21
GI50 [1]: 13.9 µM (inactive)
GI50 [2]: 2.41 µM (inactive)
GI50 [3]: 2.31 µM (inactive)
GI50 [4]: 3.01 µM (inactive)
GI50 [5]: 4.91 µM (inactive)
GI50 [6]: 11.5 µM (inactive)
GI50 [7]: 3.35 µM (inactive)
GI50 [8]: 0.973 µM (active)
GI50 [9]: 2.91 µM (inactive)
GI50 [10]: 5.32 µM (inactive)
GI50 [11]: 5.46 µM (inactive)
GI50 [12]: 4.09 µM (inactive)
GI50 [13]: 1.33 µM (inactive)
GI50 [14]: 8.81 µM (inactive)
GI50 [15]: 8.51 µM (inactive)
GI50 [16]: 0.364 µM (active)
GI50 [17]: 15.9 µM (inactive)
GI50 [18]: 0.331 µM (active)
GI50 [19]: 10.6 µM (inactive)
GI50 [20]: 10.6 µM (inactive)
GI50 [21]: 4.24 µM (inactive)
GI50 [22]: 3.13 µM (inactive)
GI50 [23]: 7.93 µM (inactive)
GI50 [24]: 4.1 µM (inactive)
GI50 [25]: 5.18 µM (inactive)
GI50 [26]: 10.7 µM (inactive)
GI50 [27]: 4.6 µM (inactive)
GI50 [28]: 8.89 µM (inactive)
GI50 [29]: 2.77 µM (inactive)
GI50 [30]: 2.35 µM (inactive)
GI50 [31]: 5.89 µM (inactive)
GI50 [32]: 9.53 µM (inactive)
GI50 [33]: 10.8 µM (inactive)
GI50 [34]: 1.79 µM (inactive)
GI50 [35]: 12.5 µM (inactive)
GI50 [36]: 6.11 µM (inactive)
GI50 [37]: 14.8 µM (inactive)
GI50 [38]: 1.69 µM (inactive)
GI50 [39]: 5.56 µM (inactive)
GI50 [40]: 8.99 µM (inactive)
GI50 [41]: 3.78 µM (inactive)
GI50 [42]: 5.36 µM (inactive)
GI50 [43]: 3.97 µM (inactive)
GI50 [44]: 1.85 µM (inactive)
GI50 [45]: 2.26 µM
GI50 [46]: 3.66 µM (inactive)
GI50 [47]: 2.15 µM (inactive)
GI50 [48]: 1.99 µM (inactive)
GI50 [49]: 8.79 µM (inactive)
GI50 [50]: 14.2 µM (inactive)
GI50 [51]: 6.7 µM (inactive)
GI50 [52]: 2.8 µM (inactive)
GI50 [53]: 22.2 µM (inactive)
GI50 [54]: 5.86 µM (inactive)
GI50 [55]: 2.37 µM (inactive)
GI50 [56]: 4.35 µM (inactive)
GI50 [57]: 15.5 µM (inactive)

O=C(NCCCNCCCCNCCCNC(=O)C(F)(F)F)C(F)(F)F
GI50 [1]: > 100 µM (inactive)
GI50 [2]: > 100 µM (inactive)
GI50 [3]: > 100 µM (inactive)
GI50 [4]: > 100 µM (inactive)
GI50 [5]: > 100 µM (inactive)
GI50 [6]: > 100 µM (inactive)
GI50 [7]: > 100 µM (inactive)
GI50 [8]: > 100 µM (inactive)
GI50 [9]: > 100 µM (inactive)
GI50 [10]: > 100 µM (inactive)
GI50 [58]: > 100 µM (inactive)
GI50 [11]: > 100 µM (inactive)
GI50 [12]: > 100 µM (inactive)
GI50 [13]: > 100 µM (inactive)
GI50 [14]: > 100 µM (inactive)
GI50 [15]: > 100 µM (inactive)
GI50 [16]: > 100 µM (inactive)
GI50 [17]: > 100 µM (inactive)
GI50 [18]: 46.1 µM (inactive)
GI50 [19]: > 100 µM (inactive)
GI50 [20]: > 100 µM (inactive)
GI50 [21]: > 100 µM (inactive)
GI50 [22]: > 100 µM (inactive)
GI50 [23]: > 100 µM (inactive)
GI50 [24]: 52.6 µM (inactive)
GI50 [25]: > 100 µM (inactive)
GI50 [26]: > 100 µM (inactive)
GI50 [27]: > 100 µM (inactive)
GI50 [28]: > 100 µM (inactive)
GI50 [30]: > 100 µM (inactive)
GI50 [31]: > 100 µM (inactive)
GI50 [32]: > 100 µM (inactive)
GI50 [33]: > 100 µM (inactive)
GI50 [34]: > 100 µM (inactive)
GI50 [35]: > 100 µM (inactive)
GI50 [36]: > 100 µM (inactive)
GI50 [38]: 54.8 µM (inactive)
GI50 [39]: 76.4 µM (inactive)
GI50 [40]: > 100 µM (inactive)
GI50 [41]: > 100 µM (inactive)
GI50 [42]: > 100 µM (inactive)
GI50 [43]: > 100 µM (inactive)
GI50 [44]: > 100 µM (inactive)
GI50 [45]: > 100 µM
GI50 [47]: > 100 µM (inactive)
GI50 [48]: 0.359 µM (active)
GI50 [49]: > 100 µM (inactive)
GI50 [50]: > 100 µM (inactive)
GI50 [51]: > 100 µM (inactive)
GI50 [52]: 20 µM (inactive)
GI50 [53]: > 100 µM (inactive)
GI50 [54]: > 100 µM (inactive)
GI50 [55]: > 100 µM (inactive)
GI50 [56]: > 100 µM (inactive)
GI50 [57]: > 100 µM (inactive)

COc1nc2c(N3CCCC3)nc(N3CCNCC3)nc2nc1NCc1ccccc1
GI50 [1]: 1.66 µM (inactive)
GI50 [2]: 1.47 µM (inactive)
GI50 [3]: 1.07 µM (active)
GI50 [4]: 1.69 µM (inactive)
GI50 [5]: 1.63 µM (inactive)
GI50 [6]: 2.34 µM (inactive)
GI50 [7]: 1.41 µM (inactive)
GI50 [8]: 1.09 µM (active)
GI50 [9]: 2.03 µM (inactive)
GI50 [10]: 1.74 µM (inactive)
GI50 [58]: 2.01 µM (inactive)
GI50 [59]: 1.32 µM (inactive)
GI50 [11]: 1.39 µM (inactive)
GI50 [12]: 1.76 µM (inactive)
GI50 [13]: 2.07 µM (inactive)
GI50 [14]: 2.08 µM (inactive)
GI50 [15]: 1.48 µM (inactive)
GI50 [16]: 1.58 µM (inactive)
GI50 [17]: 2.05 µM (inactive)
GI50 [18]: 1.68 µM (inactive)
GI50 [19]: 1.75 µM (inactive)
GI50 [20]: 1.44 µM (inactive)
GI50 [21]: 0.755 µM (active)
GI50 [23]: 2.16 µM (inactive)
GI50 [24]: 2.03 µM (inactive)
GI50 [25]: 1.76 µM (inactive)
GI50 [26]: 1.35 µM (inactive)
GI50 [27]: 1.05 µM (active)
GI50 [28]: 2.61 µM (inactive)
GI50 [29]: 1.67 µM (inactive)
GI50 [30]: 1.28 µM (inactive)
GI50 [31]: 4.17 µM (inactive)
GI50 [32]: 3.03 µM (inactive)
GI50 [33]: 1.61 µM (inactive)
GI50 [34]: 1.33 µM (inactive)
GI50 [35]: 2.28 µM (inactive)
GI50 [36]: 2.83 µM (inactive)
GI50 [37]: 1.71 µM (inactive)
GI50 [38]: 2.77 µM (inactive)
GI50 [39]: 1.39 µM (inactive)
GI50 [40]: 1.95 µM (inactive)
GI50 [41]: 1.65 µM (inactive)
GI50 [42]: 1.85 µM (inactive)
GI50 [43]: 1.98 µM (inactive)
GI50 [44]: 0.524 µM (active)
GI50 [45]: 1.72 µM
GI50 [46]: 1.79 µM (inactive)
GI50 [47]: 2.03 µM (inactive)
GI50 [48]: 1.9 µM (inactive)
GI50 [49]: 1.86 µM (inactive)
GI50 [50]: 1.74 µM (inactive)
GI50 [51]: 2.77 µM (inactive)
GI50 [52]: 2.38 µM (inactive)
GI50 [53]: 2.01 µM (inactive)
GI50 [54]: 1.53 µM (inactive)
GI50 [55]: 1.75 µM (inactive)
GI50 [56]: 1.21 µM (inactive)
GI50 [57]: 0.855 µM (active)

CC(C)CNc1nc2ncnc(N)c2[nH]1
GI50 [1]: > 100 µM (inactive)
GI50 [2]: > 100 µM (inactive)
GI50 [3]: > 100 µM (inactive)
GI50 [4]: > 100 µM (inactive)
GI50 [5]: > 100 µM (inactive)
GI50 [6]: > 100 µM (inactive)
GI50 [7]: > 100 µM (inactive)
GI50 [8]: > 100 µM (inactive)
GI50 [9]: > 100 µM (inactive)
GI50 [10]: > 100 µM (inactive)
GI50 [58]: > 100 µM (inactive)
GI50 [11]: > 100 µM (inactive)
GI50 [12]: > 100 µM (inactive)
GI50 [13]: > 100 µM (inactive)
GI50 [14]: > 100 µM (inactive)
GI50 [15]: > 100 µM (inactive)
GI50 [16]: > 100 µM (inactive)
GI50 [17]: > 100 µM (inactive)
GI50 [18]: < 0.01 µM (active)
GI50 [19]: > 100 µM (inactive)
GI50 [21]: > 100 µM (inactive)
GI50 [22]: > 100 µM (inactive)
GI50 [23]: > 100 µM (inactive)
GI50 [24]: > 100 µM (inactive)
GI50 [25]: > 100 µM (inactive)
GI50 [26]: > 100 µM (inactive)
GI50 [27]: > 100 µM (inactive)
GI50 [28]: > 100 µM (inactive)
GI50 [29]: > 100 µM (inactive)
GI50 [30]: > 100 µM (inactive)
GI50 [31]: > 100 µM (inactive)
GI50 [32]: > 100 µM (inactive)
GI50 [33]: > 100 µM (inactive)
GI50 [34]: > 100 µM (inactive)
GI50 [35]: > 100 µM (inactive)
GI50 [36]: > 100 µM (inactive)
GI50 [37]: > 100 µM (inactive)
GI50 [38]: > 100 µM (inactive)
GI50 [39]: > 100 µM (inactive)
GI50 [40]: > 100 µM (inactive)
GI50 [41]: > 100 µM (inactive)
GI50 [42]: > 100 µM (inactive)
GI50 [43]: > 100 µM (inactive)
GI50 [44]: > 100 µM (inactive)
GI50 [45]: > 100 µM
GI50 [46]: 56.8 µM (inactive)
GI50 [47]: > 100 µM (inactive)
GI50 [48]: > 100 µM (inactive)
GI50 [49]: > 100 µM (inactive)
GI50 [50]: > 100 µM (inactive)
GI50 [51]: > 100 µM (inactive)
GI50 [52]: > 100 µM (inactive)
GI50 [53]: > 100 µM (inactive)
GI50 [54]: > 100 µM (inactive)
GI50 [55]: > 100 µM (inactive)
GI50 [56]: > 100 µM (inactive)
GI50 [57]: > 100 µM (inactive)
